The source of these data is patent publication US20100234325A1 (priority 2009, published 2010).

Values joined by “and” are separate entries in the source; they are usually repeats but may differ in a detail not shown here. Equal values may be shown once. Read-outs that look alike come from different tables or passages of the source.

What is called ILS is the gain in survival time of treated over control animals, in per cent. Low values mean a small benefit in survival, high ones a large benefit in survival.

One data set concerns TE-671. To be noted: intrathecal administration; cited from earlier work.
Data set [1] relates to L1210 leukemia. The data set can be described thus: intracerebrally implanted L1210 leukemia in vivo. Further details: species or system murine. To be noted: for leukemia cell burden after therapy: highest non-toxic dose; for increase in lifespan (ILS): highest non-toxic doses.
A further data set has as its system D54 tumor. To be noted: intraarterial or intravenous administration; cited from earlier work.
The test system of the next data set is D54. The note with it: intrathecal administration; cited from earlier work.
Data set [2] relates to human glioblastoma xenograft U-251. Format: in vivo.
The next data set relates to MX-1 human breast tumor. It is filed as in vivo.
Data set [3] deals with L1210 leukemia. The note with it: intracerebral L1210 model, typical value; cited from earlier work.
The subject of a further data set is SNB-19. To be noted: SNB-19 glioma cell line. The source says: (§1) Additional in vitro studies vs. U251, D54 and MDA-MB-361 cells also included 4-HC.
A further data set has as its system SF-268. To be noted: SF-268 glioma cell line.
Text: as §1

Another data set relates to SNB-7. The note with it: SNB-7 glioma cell line.
Text: as §1

For data set [4] the following is noted: after 6 hours, ambient temperature, 31P-NMR.
Data set [5] has as its system L1210 leukemia. The note with it: IP implant; cited from earlier work.

With `O=P1(N(CCCl)CCCl)NC(OO)CCO1` (centres unmarked) [4-HC, 4-hydroperoxycyclophosphamide], the “activity against TE-671 brain tumor model” value in the data set on TE-671 was “active”. Further, in the data set on L1210 leukemia [1] (implant of 10^4 cells), the “activity against intracerebrally implanted L1210 leukemia” value was “essentially inactive”. Also, the “activity against D54 tumor” value in the data set on D54 tumor is “active”. Moreover, the “activity against D54 brain tumor model” value in the data set with D54 was “active”.
As for `O=NN(CCCl)C(=O)NCCCl` [BCNU, carmustine, reference compound], the ILS in data set [2] (in vivo) was 110-150% and 130%; in the data set on MX-1 human breast tumor (in vivo), 13%.
With `O=P1(N(CCCl)CCCl)NCCCO1` (centres unmarked) [CPA, cyclophosphamide, reference compound], in the data set on L1210 leukemia [3], the “highest non-toxic dose (typical)” value was 250 to 300 mg/kg. In addition, in the data set with L1210 leukemia [1] (implant of 10^4 cells), the “leukemia cell burden after therapy” value is on record as 1.3×10^2 cells. Also, in the data set on L1210 leukemia [1] (implant of 10^5 L1210 cells), the “increase in lifespan (ILS)” value amounted to 37%.
For `O=P1(N(CCCl)CCCl)NC(OOC2CCOP(=O)(N(CCCl)CCCl)N2)CCO1` (centres unmarked) [peroxyCPA, 4-peroxy-cyclophosphamide], the DNA crosslinking entry with pBR322 DNA is recorded as “crosslinks DNA”. Also, the ILS in data set [2] (IC-implanted U-251, one (first) study) is 300-350%; in data set [2] (IC-implanted U-251, second study), 180%; in the data set on MX-1 human breast tumor (IC-implanted MX-1), 69%. The “in vitro activity compared to BCNU and temozolomide” value with SNB-19, with SF-268 and in the data set on SNB-7 was “superior activity” in each case. Further, the “remaining in human serum” value in data set [4] came to 74%. For the same compound, in the data set on L1210 leukemia [1] (implant of 10^4 cells), the “leukemia cell burden after therapy” value is 1.0×10^0 cells. In addition, the “increase in lifespan (ILS) over controls” value with L1210 leukemia [1] (implant of 10^4 cells, highest non-toxic dose (300 mg/kg)) is 85%. In addition, in the data set on L1210 leukemia [1] (implant of 10^5 L1210 cells), the “reduction of leukemia cell burden relative to CPA” value is reported as “two orders of magnitude more”. Moreover, the “increase in lifespan (ILS)” value in the data set on L1210 leukemia [1] (implant of 10^5 L1210 cells) turned out to be 100%. For the same compound, the highest non-toxic dose with L1210 leukemia [1] (intracerebral L1210 model) amounted to 300 mg/kg. In the data set on L1210 leukemia [5], the “activity against intraperitoneally-implanted L1210 leukemia” value was “curative activity”.
